In patent US20260262643A1, “HERBICIDAL BENZOXAZINES” (FMC CORPORATION, priority 2022, published 2026):

Key:
[1] = tested on: kochia; assay: Test A postemergence; format: in vivo, Bassia scoparia; details: 1000 g ai/ha, Postemergence; 0 to 100 scale
In short: (§1)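 Greenhouse pot test, 10 days. Compound (non-phytotoxic solvent, surfactant) sprayed on soil at seeding or on seedlings at one- to two-leaf stage. Visual injury rated 0–100 against untreated plants.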

[2] = tested on: foxtail, giant; assay: Test A preemergence; format: in vivo, Setaria faberi; details: 1000 g ai/ha, 0 to 100 scale (0 no effect, 100 complete control), 10 days
In short: as §1

[3] = tested on: foxtail, giant; assay: Test A postemergence; format: in vivo, Setaria faberi; details: 1000 g ai/ha, Postemergence; 0 to 100 scale
In short: as §1

[4] = tested on: barnyardgrass; assay: Test A preemergence; format: in vivo, Echinochloa crusgalli; details: 1000 g ai/ha, 0 to 100 scale (0 no effect, 100 complete control), 10 days
In short: as §1

[5] = tested on: kochia; assay: Test A preemergence; format: in vivo, Bassia scoparia; details: 1000 g ai/ha, 0 to 100 scale (0 no effect, 100 complete control), 10 days
In short: as §1

[6] = tested on: Pigweed, Redroot; assay: Test A postemergence; format: in vivo, Amaranthus retroflexus; details: 1000 g ai/ha, Postemergence; 0 to 100 scale
Description: (§2) Seeds of plant species selected from barnyardgrass (Echinochloa crusgalli), blackgrass (Alopecurus myosuroides), corn (Zea mays), foxtail, giant (giant foxtail, Setaria faberi), goosegrass (Eleusine indica), kochia (Bassia scoparia), oat, wild (wild oat, Avena fatua), pigweed, palmer (palmer amaranth, palmer pigweed, Amaranthus palmeri), Pigweed, Redroot (redroot pigweed, Amaranthus retroflexus), ragweed (common ragweed, Ambrosia artemisiifolia), ryegrass, Italian (italian ryegrass, Lolium multiflorum), soybean (Glycine max), and wheat (Triticum aestivum) were planted into a blend of loam soil and sand and treated preemergence with a directed soil spray using test chemicals formulated in a non-phytotoxic solvent mixture which included a surfactant. At the same time, plants selected from these crops and weed species and also galium (catchweed bedstraw, Galium aparine) and horseweed (Erigeron canadensis) were planted in pots containing the same blend of loam soil and sand and treated with postemergence applications of test chemicals formulated in the same manner. Plants ranged in height from 2 to 10 cm and were in the one- to two-leaf stage for the postemergence treatment. Treated plants and untreated controls were maintained in a greenhouse for 10 days, after which time all treated plants were compared to untreated controls and visually evaluated for injury. Plant response ratings, summarized in Table A, are based on a 0 to 100 scale where 0 is no effect and 100 is complete control. A dash (-) response means no test result.

[7] = tested on: Pigweed, Redroot; assay: Test A preemergence; format: in vivo, Amaranthus retroflexus; details: 1000 g ai/ha, 0 to 100 scale (0 no effect, 100 complete control), 10 days
Description: as §2

[8] = tested on: galium; assay: Test A postemergence; format: in vivo, Galium aparine; details: 1000 g ai/ha, Postemergence; 0 to 100 scale
In short: as §1

[9] = tested on: blackgrass; assay: Test A postemergence; format: in vivo, Alopecurus myosuroides; details: 1000 g ai/ha, Postemergence; 0 to 100 scale
In short: as §1

[10] = tested on: ragweed; assay: Test A preemergence; format: in vivo, Ambrosia artemisiifolia; details: 1000 g ai/ha, 0 to 100 scale (0 no effect, 100 complete control), 10 days
In short: as §1

[11] = tested on: barnyardgrass; assay: Test A postemergence; format: in vivo, Echinochloa crusgalli; details: 1000 g ai/ha, Postemergence; 0 to 100 scale
In short: as §1

[12] = tested on: ryegrass, Italian; assay: Test A postemergence; format: in vivo, Lolium multiflorum; details: 1000 g ai/ha, Postemergence; 0 to 100 scale
In short: as §1

[13] = tested on: ryegrass, Italian; assay: Test A preemergence; format: in vivo, Lolium multiflorum; details: 1000 g ai/ha, 0 to 100 scale (0 no effect, 100 complete control), 10 days
In short: as §1

[14] = tested on: corn; assay: Test A postemergence; format: in vivo, Zea mays; details: 1000 g ai/ha, Postemergence; 0 to 100 scale
In short: as §1

[15] = tested on: ragweed; assay: Test A postemergence; format: in vivo, Ambrosia artemisiifolia; details: 1000 g ai/ha, Postemergence; 0 to 100 scale
In short: as §1

[16] = tested on: wheat; assay: Test A postemergence; format: in vivo, Triticum aestivum; details: 1000 g ai/ha, Postemergence; 0 to 100 scale
In short: as §1

[17] = tested on: barnyardgrass; assay: Test B flooded paddy test; format: in vivo, Echinochloa crus-galli; details: 250 g ai/ha, Flood, 13 days, 0 to 100 scale (0 no effect, 100 complete control)
In short: (§3)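 Compound is introduced into paddy water covering soil by 3 cm, treating plants that have reached two leaves. Pots are kept flooded at that depth under greenhouse conditions. Assessment at 13 days gives a 0–100 visual control score.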

[18] = tested on: rice; assay: Test B flooded paddy test; format: in vivo, Oryza sativa; details: 250 g ai/ha, Flood, 13 days, 0 to 100 scale (0 no effect, 100 complete control)
In short: as §3

[19] = tested on: ducksalad; assay: Test B flooded paddy test; format: in vivo, Heteranthera limosa; details: 250 g ai/ha, Flood, 13 days, 0 to 100 scale (0 no effect, 100 complete control)
In short: as §3

[20] = tested on: sedge, umbrella; assay: Test B flooded paddy test; format: in vivo, Cyperus difformis; details: 250 g ai/ha, Flood, 13 days, 0 to 100 scale (0 no effect, 100 complete control)
In short: as §3

C[C@H]1CN(C(=O)c2cccc(-c3ccncc3)c2)c2cccc(Cl)c2O1 [Compound 123]
Plant response rating, Kochia [1]: 20
Plant response rating, Foxtail, Giant [2]: 0
Plant response rating, Foxtail, Giant [3]: 10
Plant response rating, Barnyardgrass [4]: 40
Plant response rating, Kochia [5]: 30
Plant response rating, Pigweed, Redroot [6]: 60
Plant response rating, Pigweed, Redroot [7]: 30
Plant response rating, Galium [8]: 50
Plant response rating, Blackgrass [9]: 20
Plant response rating, Ragweed [10]: 30
Plant response rating, Barnyardgrass [11]: 20
Plant response rating, Ryegrass, Italian [12]: 30
Plant response rating, Ryegrass, Italian [13]: 30
Plant response rating, Corn [14]: 0
Plant response rating, Ragweed [15]: 0
Plant response rating, Wheat [16]: 0

CC1CN(C(=O)c2cccc(-n3cncn3)c2)c2ccc(F)cc2O1 (stereo not shown) [Compound 23]
Plant response rating, Kochia [1]: 10
Plant response rating, Foxtail, Giant [2]: 50
Plant response rating, Foxtail, Giant [3]: 10
Plant response rating, Barnyardgrass [4]: 30
Plant response rating, Kochia [5]: 0
Plant response rating, Pigweed, Redroot [6]: 0
Plant response rating, Pigweed, Redroot [7]: 0
Plant response rating, Blackgrass [9]: 30
Plant response rating, Ragweed [10]: 0
Plant response rating, Barnyardgrass [11]: 10
Plant response rating, Ryegrass, Italian [12]: 0
Plant response rating, Ryegrass, Italian [13]: 30
Plant response rating, Corn [14]: 30
Plant response rating, Ragweed [15]: 20
Plant response rating, Wheat [16]: 20

CCC1CN(C(=O)c2ccnc(-n3cncn3)c2)c2cccc(Cl)c2O1 (single isomer, unassigned) [Compound 5]
Plant response rating, Foxtail, Giant [2]: 100
Plant response rating, Barnyardgrass [4]: 70
Plant response rating, Kochia [5]: 30
Plant response rating, Barnyardgrass [17]: 25
Plant response rating, Rice [18]: 0
Plant response rating, Pigweed, Redroot [7]: 80
Plant response rating, Ragweed [10]: 0
Plant response rating, Ryegrass, Italian [13]: 80
Plant response rating, Ducksalad [19]: 35
Plant response rating, Sedge, Umbrella [20]: 0

CC1CN(C(=O)c2cccc(-n3cncn3)c2)c2cc(F)ccc2O1 (stereo not shown) [Compound 24]
Plant response rating, Kochia [1]: 10
Plant response rating, Foxtail, Giant [2]: 30
Plant response rating, Foxtail, Giant [3]: 50
Plant response rating, Barnyardgrass [4]: 50
Plant response rating, Kochia [5]: 0
Plant response rating, Pigweed, Redroot [6]: 0
Plant response rating, Pigweed, Redroot [7]: 0
Plant response rating, Blackgrass [9]: 60
Plant response rating, Ragweed [10]: 0
Plant response rating, Barnyardgrass [11]: 30
Plant response rating, Ryegrass, Italian [12]: 60
Plant response rating, Ryegrass, Italian [13]: 100
Plant response rating, Corn [14]: 10
Plant response rating, Ragweed [15]: 0
Plant response rating, Wheat [16]: 30

CC1CN(C(=O)c2ccnc(-n3cncn3)c2)c2cccc(Cl)c2O1 (stereo not shown) [Compound 1]
Plant response rating, Foxtail, Giant [2]: 100
Plant response rating, Barnyardgrass [4]: 80
Plant response rating, Kochia [5]: 40
Plant response rating, Barnyardgrass [17]: 0
Plant response rating, Rice [18]: 0
Plant response rating, Pigweed, Redroot [7]: 40
Plant response rating, Ragweed [10]: 80
Plant response rating, Ryegrass, Italian [13]: 90
Plant response rating, Ducksalad [19]: 0
Plant response rating, Sedge, Umbrella [20]: 0

CC1CN(C(=O)c2ccnc(-n3cncn3)c2)c2cccc(Cl)c2O1 (stereo not shown) [Compound 10]
Plant response rating, Foxtail, Giant [2]: 100
Plant response rating, Barnyardgrass [4]: 90
Plant response rating, Kochia [5]: 30
Plant response rating, Barnyardgrass [17]: 0
Plant response rating, Rice [18]: 0
Plant response rating, Pigweed, Redroot [7]: 40
Plant response rating, Ragweed [10]: 80
Plant response rating, Ryegrass, Italian [13]: 80
Plant response rating, Ducksalad [19]: 0
Plant response rating, Sedge, Umbrella [20]: 0

CCC1CN(C(=O)c2ccnc(-n3cncn3)c2)c2cccc(Cl)c2O1 (single isomer, unassigned) [Compound 4]
Plant response rating, Foxtail, Giant [2]: 0
Plant response rating, Barnyardgrass [4]: 0
Plant response rating, Kochia [5]: 0
Plant response rating, Pigweed, Redroot [7]: 0
Plant response rating, Ragweed [10]: 0
Plant response rating, Ryegrass, Italian [13]: 0

CCCC1CN(C(=O)c2ccnc(-n3cncn3)c2)c2cccc(Cl)c2O1 (stereo not shown) [Compound 2]
Plant response rating, Foxtail, Giant [2]: 100
Plant response rating, Barnyardgrass [4]: 60
Plant response rating, Kochia [5]: 0
Plant response rating, Pigweed, Redroot [7]: 20
Plant response rating, Ragweed [10]: 0
Plant response rating, Ryegrass, Italian [13]: 60

CC1CN(C(=O)c2cccc(-n3cncn3)c2)c2ccccc2O1 (stereo not shown) [Compound 31]
Plant response rating, Kochia [1]: 20
Plant response rating, Foxtail, Giant [2]: 100
Plant response rating, Foxtail, Giant [3]: 80
Plant response rating, Barnyardgrass [4]: 80
Plant response rating, Kochia [5]: 30
Plant response rating, Pigweed, Redroot [6]: 0
Plant response rating, Pigweed, Redroot [7]: 0
Plant response rating, Blackgrass [9]: 50
Plant response rating, Ragweed [10]: 20
Plant response rating, Barnyardgrass [11]: 30
Plant response rating, Ryegrass, Italian [12]: 70
Plant response rating, Ryegrass, Italian [13]: 90
Plant response rating, Corn [14]: 30
Plant response rating, Ragweed [15]: 0
Plant response rating, Wheat [16]: 40

C=Cc1cccc2c1OC(C)CN2C(=O)c1cccc(-n2cncn2)c1 (stereo not shown) [Compound 26]
Plant response rating, Kochia [1]: 0
Plant response rating, Foxtail, Giant [2]: 0
Plant response rating, Foxtail, Giant [3]: 0
Plant response rating, Barnyardgrass [4]: 0
Plant response rating, Kochia [5]: 0
Plant response rating, Pigweed, Redroot [6]: 0
Plant response rating, Pigweed, Redroot [7]: 0
Plant response rating, Blackgrass [9]: 0
Plant response rating, Ragweed [10]: 0
Plant response rating, Barnyardgrass [11]: 0
Plant response rating, Ryegrass, Italian [12]: 0
Plant response rating, Ryegrass, Italian [13]: 0
Plant response rating, Corn [14]: 0
Plant response rating, Ragweed [15]: 0
Plant response rating, Wheat [16]: 0

CC(C)C1CN(C(=O)c2ccnc(-n3cncn3)c2)c2cccc(Cl)c2O1 (stereo not shown) [Compound 3]
Plant response rating, Foxtail, Giant [2]: 0
Plant response rating, Barnyardgrass [4]: 0
Plant response rating, Kochia [5]: 0
Plant response rating, Pigweed, Redroot [7]: 0
Plant response rating, Ragweed [10]: 0
Plant response rating, Ryegrass, Italian [13]: 0
